# Key:
# Type in all cases: functional
# Escherichia coli [1] = test: […] against Escherichia coli Juhl (100 X LD50) (s.c. administration); Range is between(0.2-0.5); conditions: sc
# Klebsiella aerogenes = test: In vitro antibacterial activity against Enterobacter aerogenes ATCC 13048
# Escherichia coli [2] = test: In vitro antibacterial activity against Escherichia coli Juhl
# Klebsiella pneumoniae = test: In vitro antibacterial activity against Klebsiella pneumoniae 8045
# Pseudomonas aeruginosa [3] = test: FIn vitro antibacterial activity against Pseudomonas aeruginosa K799/WT
# [4] = system: Staphylococcus epidermidis; test: In vitro antibacterial activity against Staphylococcus epidermis 3519
# Streptococcus pyogenes = test: In vitro antibacterial activity against Streptococcus pyogenes 930
# Staphylococcus aureus [5] = test: In vitro antibacterial activity against Staphylococcus aureus CMX 686B
# Staphylococcus aureus [6] = test: In vitro antibacterial activity against Staphylococcus aureus ATCC 6538P
# Enterococcus faecium = test: In vitro antibacterial activity against Streptococcus faecium ATCC 8043
# Acinetobacter = test: In vitro antibacterial activity against Acinetobacter CMX 669
# Pseudomonas aeruginosa [7] = test: In vitro antibacterial activity against Pseudomonas aeruginosa 5007
# Pseudomonas aeruginosa [8] = test: In vitro antibacterial activity against Pseudomonas aeruginosa K799/WT
# Escherichia coli [9] = test: […] against Escherichia coli Juhl (100 X LD50) (s.c. administration); Range is between(1.0-1.8)
# Escherichia coli [10] = test: […] against Escherichia coli Juhl (100 X LD50); Range is between (2.0-5.0)
# Escherichia coli [11] = test: Compound was evaluated in vivo for antibacterial activity against Escherichia coli Juhl (100 X LD50) (s.c. administration); range is between (0.6-2.5); conditions: sc
# Escherichia coli [12] = test: Compound was evaluated in vivo for antibacterial activity against Escherichia coli Juhl (100 X LD50)
# Pseudomonas aeruginosa [13] = test: […] against Pseudomonas aeruginosa 5007 (100 X LD50) (peroral administration); Range is between (15.8-[…]); conditions: po
# Pseudomonas aeruginosa [14] = test: […] against Pseudomonas aeruginosa 5007 (100 X LD50) (subcutaneous administration); Range is between (4.9-8.1); conditions: sc
# Pseudomonas aeruginosa [15] = test: Compound was evaluated in vivo for antibacterial activity against Pseudomonas aeruginosa 5007 (100 X LD50) (p.o. administration); Range is between (15.8-39.6).; conditions: po
# Pseudomonas aeruginosa [16] = test: Compound was evaluated in vivo for antibacterial activity against Pseudomonas aeruginosa 5007 (100 X LD50) (s.c. administration); Range is between (4.9-8.1); conditions: sc
# Staphylococcus aureus [17] = test: Compound was evaluated in vivo for antibacterial activity against Staphylococcus aureus NCTC 10649 (100 X LD50) (p.o. administration); Range is between (7.9-19-7).; conditions: po
# Staphylococcus aureus [18] = test: Compound was evaluated in vivo for antibacterial activity against Staphylococcus aureus NCTC 10649 (100 X LD50) (s.c. administration); Range is between (1.0-2.5); conditions: sc
# Staphylococcus aureus [19] = test: In vitro mouse protection test against Staphylococcus aureus NCTC 10649 (100 X LD50) (s.c. administration); Range is between (1.0-2.5); conditions: sc
# Staphylococcus aureus [20] = test: In vitro mouse protection test against Staphylococcus aureus NCTC 10649 (100 X LD50),(peroral administration); Range is between (7.9-19-7); conditions: po
# Escherichia coli [21] = test: […] against Escherichia coli Juhl (100 X LD50) (s.c. administration); Range is between (0.6-1.5); conditions: sc
# Escherichia coli [22] = test: Compound was evaluated in vivo for antibacterial activity against Escherichia coli Juhl (100 X LD50) (p.o. administration); Range is between (2.0-5.0); conditions: po
# Escherichia coli [23] = test: […] against Escherichia coli Juhl (100 X LD50) (p.o. administration );Range is between (2.2-7.0)
# Escherichia coli [24] = test: […] against Escherichia coli Juhl (100 X LD50) (s.c. administration );Range is between (1.6-3.9)
# Pseudomonas aeruginosa [25] = test: […] against Pseudomonas aeruginosa 5007 (100 X LD50) (peroral administration );Range is between (17.7-44.1)
# Pseudomonas aeruginosa [26] = test: […] against Pseudomonas aeruginosa 5007 (100 X LD50) (subcutaneous administration );Range is between (6.6-16.2)
# Staphylococcus aureus [27] = test: In vitro mouse protection test against Staphylococcus aureus NCTC 10649 (100 X LD50) (s.c. administration );Range is between (2.6-5.4).; conditions: sc
# Staphylococcus aureus [28] = test: […] against Staphylococcus aureus NCTC 10649 (100 X LD50),(peroral administration); Range is between (3.7-10.2).; conditions: po
SMILES,MIC (Klebsiella aerogenes),MIC (Escherichia coli [2]),MIC (Klebsiella pneumoniae),MIC [4],MIC (Streptococcus pyogenes),MIC (Staphylococcus aureus [5]),MIC (Staphylococcus aureus [6]),MIC (Enterococcus faecium),MIC (Acinetobacter),MIC (Pseudomonas aeruginosa [7]),MIC (Pseudomonas aeruginosa [8]),other results
O=C(O)c1cn(-c2ccc(F)cc2F)c2c(F)c(N3CCNCC3)c(F)cc2c1=O,0.2 µg/mL,0.05 µg/mL,0.05 µg/mL,0.78 µg/mL,1.56 µg/mL,0.39 µg/mL,0.39 µg/mL,1.56 µg/mL,0.39 µg/mL,0.78 µg/mL,–,ED50 (Escherichia coli [1]): 0.3 mg/kg; MIC (Pseudomonas aeruginosa [3]): 0.78 µg/mL
NC1CCN(c2c(F)cc3c(=O)c(C(=O)O)cn(-c4ccc(F)cc4F)c3c2F)C1 (stereo unspecified),0.2 µg/mL,0.1 µg/mL,0.1 µg/mL,0.39 µg/mL,0.78 µg/mL,0.2 µg/mL,0.2 µg/mL,1.56 µg/mL,0.39 µg/mL,1.56 µg/mL,0.78 µg/mL,–
CN1CCN(c2c(F)cc3c(=O)c(C(=O)O)cn(-c4ccc(F)cc4)c3c2F)CC1,0.78 µg/mL,0.39 µg/mL,0.39 µg/mL,0.78 µg/mL,3.1 µg/mL,0.39 µg/mL,0.39 µg/mL,3.1 µg/mL,0.39 µg/mL,3.1 µg/mL,3.1 µg/mL,ED50 mg/kg (Escherichia coli [9]): 1.3
O=C(O)c1cn(-c2ccc(F)cc2)c2c(F)c(N3CCNCC3)c(F)cc2c1=O,0.1 µg/mL,0.1 µg/mL,0.05 µg/mL,0.78 µg/mL,1.56 µg/mL,0.39 µg/mL,0.39 µg/mL,6.2 µg/mL,0.39 µg/mL,0.78 µg/mL,0.39 µg/mL,ED50 (Escherichia coli [10]): 3.2 mg/kg; ED50 (Escherichia coli [11]): 1 mg/kg; MIC (Escherichia coli [12]): 0.1 µg/mL; ED50 (Pseudomonas aeruginosa [13]): 25 mg/kg; ED50 (Pseudomonas aeruginosa [14]): 6.3 mg/kg; ED50 (Pseudomonas aeruginosa [15]): 25 mg/kg; ED50 (Pseudomonas aeruginosa [16]): 6.3 mg/kg; ED50 (Staphylococcus aureus [17]): 12.5 mg/kg; ED50 (Staphylococcus aureus [18]): 1.6 mg/kg; ED50 (Staphylococcus aureus [19]): 1.6 mg/kg; ED50 (Staphylococcus aureus [20]): 12.5 mg/kg; ED50 (Escherichia coli [21]): 1 mg/kg; ED50 (Escherichia coli [22]): 3.2 mg/kg
CN1CCN(c2c(F)cc3c(=O)c(C(=O)O)cn(-c4ccc(F)cc4F)c3c2F)CC1,0.39 µg/mL,0.39 µg/mL,0.2 µg/mL,0.78 µg/mL,3.1 µg/mL,0.39 µg/mL,0.39 µg/mL,6.2 µg/mL,0.39 µg/mL,3.1 µg/mL,1.56 µg/mL,ED50 mg/kg (Escherichia coli [23]): 3.9; ED50 mg/kg (Escherichia coli [24]): 2.5; ED50 mg/kg (Pseudomonas aeruginosa [25]): 27.9; ED50 mg/kg (Pseudomonas aeruginosa [26]): 10.3; ED50 (Staphylococcus aureus [27]): 3.7 mg/kg; ED50 (Staphylococcus aureus [28]): 6.1 mg/kg

# Reference: ChEMBL document CHEMBL1123847, “Synthesis and structure-activity relationship of 1-aryl-6,8-difluoroquinolone antibacterial agents” (1987)
